Data published in PubChem BioAssay AID2060617 (Molecular Pharmacology Branch, DTP, NCI, 2025).
“And” between values parts separate entries of the source, which are not always exact repeats. Equal entries are not always repeated.

Test system: 485368-065-R4-J2-PDC spheroids with HUVEC/MSC, viability
Assay: Anticancer human tumor 485368-065-R4-J2-PDC patient-derived pancreatic carcinoma cell line growth inhibition [CLK]
Details: for viability, T/C: stronger effect = lower value
Outline: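 Patient-derived tumor cells grown as complex spheroids with HUVEC endothelial cells and mesenchymal stem cells, treated with drug combinations. Concentrations descend in half-log steps from near clinical Cmax, or from 10 microM if Cmax unknown.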
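Also: spheroids exposed to compounds for seven days.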
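For viability, T/C in this document: 100% = DMSO vehicle control wells.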

COc1ccc([C@@H](O)c2cc(-c3ncnc4cc(N5CCOCC5)ccc34)c(F)cc2Cl)nn1 + CNC(=O)c1ccc(Nc2nc(OC3CCCC3)c3c(-c4ccc5nc(C)oc5c4)c[nH]c3n2)c(OC)c1
IC50 (curve of first compound, second compound 0.0316 µM): > 10 µM | IC50 (curve of first compound, second compound 0.1 µM): > 10 µM | IC50 (curve of first compound, second compound 0.316 µM): > 10 µM | IC50 (curve of first compound, second compound 1 µM): > 10 µM | IC50 (curve of first compound, second compound 3.16 µM): > 10 µM | IC50 (curve of first compound, second compound 10 µM): > 10 µM | viability, T/C (second compound 0.0316 µM, first compound 0.0316 µM): 84.1% | viability, T/C (second compound 0.0316 µM, first compound 0.1 µM): 96.7% | viability, T/C (second compound 0.0316 µM, first compound 0.316 µM): 96.1% | viability, T/C (second compound 0.0316 µM, first compound 1 µM): 103% | viability, T/C (second compound 0.0316 µM, first compound 3.16 µM): 122% | viability, T/C (second compound 0.0316 µM, first compound 10 µM): 83.7% | viability, T/C (second compound 0.1 µM, first compound 0.0316 µM): 86.5% | viability, T/C (second compound 0.1 µM, first compound 0.1 µM): 99.7% | viability, T/C (second compound 0.1 µM, first compound 0.316 µM): 95.1% | viability, T/C (second compound 0.1 µM, first compound 1 µM): 103% | viability, T/C (second compound 0.1 µM, first compound 3.16 µM): 96.6% | viability, T/C (second compound 0.1 µM, first compound 10 µM): 87.6% | viability, T/C (second compound 0.316 µM, first compound 0.0316 µM): 82.2% | viability, T/C (second compound 0.316 µM, first compound 0.1 µM): 77.8% | viability, T/C (second compound 0.316 µM, first compound 0.316 µM): 86.6% | viability, T/C (second compound 0.316 µM, first compound 1 µM): 73.6% | viability, T/C (second compound 0.316 µM, first compound 3.16 µM): 81.5% | viability, T/C (second compound 0.316 µM, first compound 10 µM): 66.5% | viability, T/C (second compound 1 µM, first compound 0.0316 µM): 69.8% | viability, T/C (second compound 1 µM, first compound 0.1 µM): 70.9% | viability, T/C (second compound 1 µM, first compound 0.316 µM): 72.1% | viability, T/C (second compound 1 µM, first compound 1 µM): 67.6% | viability, T/C (second compound 1 µM, first compound 3.16 µM): 65.5% | viability, T/C (second compound 1 µM, first compound 10 µM): 59.2% | viability, T/C (second compound 3.16 µM, first compound 0.0316 µM): 68.3% | viability, T/C (second compound 3.16 µM, first compound 0.1 µM): 62.7% | viability, T/C (second compound 3.16 µM, first compound 0.316 µM): 68.8% | viability, T/C (second compound 3.16 µM, first compound 1 µM): 57% | viability, T/C (second compound 3.16 µM, first compound 3.16 µM): 54.9% | viability, T/C (second compound 3.16 µM, first compound 10 µM): 51.4% | viability, T/C (second compound 10 µM, first compound 0.0316 µM): 63.7% | viability, T/C (second compound 10 µM, first compound 0.1 µM): 70.4% | viability, T/C (second compound 10 µM, first compound 0.316 µM): 65.4% | viability, T/C (second compound 10 µM, first compound 1 µM): 57.5% | viability, T/C (second compound 10 µM, first compound 3.16 µM): 54.8% | viability, T/C (second compound 10 µM, first compound 10 µM): 50.1%

CCCS(=O)(=O)Nc1ccc(F)c(C(=O)c2c[nH]c3ncc(-c4ccc(Cl)cc4)cc23)c1F
viability, T/C (compound 0.0316 µM): 103% and 95.3% | viability, T/C (compound 0.1 µM): 109% and 96.8% | viability, T/C (compound 0.316 µM): 95.8% and 90.5% | viability, T/C (compound 1 µM): 93.7% and 90.6% | viability, T/C (compound 3.16 µM): 91.3% and 80.7% | viability, T/C (compound 10 µM): 123% and 108% | IC50 (curve of compound): > 10 µM

CC(CO)NC(=O)c1cc(-c2ccc(Cl)cc2)nn(-c2cnn(C)c2)c1=O (stereo unspecified)
viability, T/C (compound 0.0316 µM): 86.9% and 92.3% | viability, T/C (compound 0.1 µM): 92.6% and 87.3% | viability, T/C (compound 0.316 µM): 97.4% and 89.7% | viability, T/C (compound 1 µM): 100% and 101% | viability, T/C (compound 3.16 µM): 107% and 110% | viability, T/C (compound 10 µM): 105% and 104% | IC50 (curve of compound): > 10 µM
